Measured values from patent publication US7129271B2, “Compounds for pest control and methods for their use” (The United States of America as represented by the …, priority 2000, dated 2006).
Converted amounts (≈) assume the structure as drawn. Read-outs that look alike come from different tables or passages of the source.

Key:
[1] = system: I. scapularis nymphs, X. cheopis adults, and Ae. aegypti adults; experiment: Initial screening against all three arthropods (Example 9); format: in vivo; settings: 24 hours exposure; ticks, fleas, mosquitoes
Method: Valencene-13-aldehyde was prepared by oxidation of valencene with SeO2. […] Commercial samples of nootkatone for comparison were obtained from Bedoukian Research, Inc., Danbury, Conn. (semi-synthetic crystalline) and Frutarom, Inc. N.J. (from grapefruit oil). […] The compounds identified by an asterisk—nos.

[2] = system: adult I. scapularis ticks; experiment: Treated-vial biocidal screening, residual challenge (Example 2); format: in vivo, Ixodes scapularis; settings: treated vials sat 4 wk; arthropods added for final 24 h
Method: (§1) Samples of the compounds listed below Were obtained from Dr. Karchesy, a co-inventor, and screened for biocidal activities against nymphal Ixodes scapularis. In this example, 2% acetone solutions (wt./vol.) of the compounds were applied to inner surfaces of 2-dram friction cap vials. Vials and caps were treated then allowed to dry for a minimum of 4 hours before placing 10 nymphs in each container. These same vials were used to challenge additional nymphs and adult I. scapularis ticks and adult Xenopsylla cheopis fleas through five weeks to observe any possible residual activity.
(§2) Numbers in parentheses refer to length of treatment in terms of hours (h) or weeks (wk). Data is presented in terms of number killed/number tested. For test periods longer than 24 hours, the treated vials were allowed to sit for the stated period after drying (72 h, 4 wk, or 5 wk) and each group of arthropods was added to the vials for the final 24 h of the test period.

[3] = system: adult Xenopsylla cheopis fleas; experiment: as above; format: in vivo; settings: treated vials sat 5 wk; arthropods added for final 24 h
Method: as §1, §2

Ae. aegypti adults = experiment: Mosquito bottle bioassay (Example 9); format: in vivo; settings: 24 h exposure, 95% CI in parentheses
Method: Mosquito Colonies. Aedes aegypti adult mosquitoes were obtained from an existing colony at the Centers for Disease Control and Prevention (CDC), Division of Vector-Borne Infectious Diseases (DVBID), Fort Collins, Colo. This colony has been maintained for over fifteen years with no known history of exposure to pesticides. Mosquitoes were reared at 28° C., 85% RH, and a 14:10 h (light:dark) cycle. Larvae were grown in de-ionized water and fed ground liver powder solution ad libitum. Fourth instars were removed and placed in emergence cages, and adults were fed a 2% sucrose solution until assayed. Adults were exposed to test products at 4–7 d after emergence.
Mosquit Bioassay. Adult mosquitoes were tested using the bottle bioassay method of Brogden, W. G., and McAllister, J. C., J. Am. Mosq. Control Assoc. 14:159–64 (1998), with minor modifications. Natural product extracts were two-fold serially diluted for a total of 8 concentrations ranging from 0.002% to 0.25% in 1.5 ml of acetone. Individual dilutions were added to 250 ml Wheaton glass bottles and capped. Bottles were manipulated to evenly coat all inner surfaces. The caps were removed and bottles were allowed to air-dry overnight. Once bottles were completely dry, 10–50 adult mosquitoes were aspirated into the bottles. Mosquitoes were held in the bottles for 24 h at 23° C. and 85% RH. Morbidity and mortality were recorded at 15, 30, 45, and 60 min and 24 hour intervals. One bottle for each replicate was treated with acetone only and served as a control. The dose-mortality data was evaluated with probit analysis, using the LdP Line software, to determine LC50 and LC90 values.

[4] = system: nymphal Ixodes scapularis; experiment: Treated-vial biocidal screening, 2% acetone solutions (Example 2); format: in vivo; settings: for I. scapularis nymphs (24 h), number killed/number tested: 2% acetone solution (wt./vol.) dried in vials; for I. scapularis nymphs (72 h), number killed/number tested: treated vials sat 72 h, arthropods added for final 24 h
Method: as §1, §2

Aedes aegypti adults = experiment: Treated-vial bioassay on mosquito (Example 3); format: in vivo; settings: 24 hours challenge
Method: as §1
Using a bioassay method similar to that presented in Example #2, the susceptibility of Aedes aegypti adults to the five compounds presented in Example #2 at 24 hours challenge was determined to be 100% mortality except for nootkatin (20% mortality).

I. scapularis nymphs = experiment: Tick bioassay, modified disposable pipette method, treated vials (Example 9); format: in vivo, Ixodes scapularis; settings: 24 h exposure, 95% CI in parentheses
Method: Tick Colonies. […] There was no known pesticide used at this location. Ticks were maintained at 21° C., 90% RH, and received a 16:8 h (light:dark) cycle as described in […]. Med. […] Tick and Flea Bioassays. […] A control treated with acetone only was run with each series. Tick and flea susceptibility was evaluated using a modified disposable pipette method. See, Barnard, D. R., et al., J. Econ. […] Three to 4 holes were made in the plastic cap to allow for air exchange. Nymphal ticks and adult fleas were then placed directly into the vials using forceps. Vials containing ticks or fleas were placed in desiccators for 24 h at 21° C. and 90% RH. […] For each time point, if ticks were incapable of movement, maintaining normal posture, leg coordination, ability to right themselves, or any signs of life, they were considered moribund or dead.

X. cheopis adults = experiment: Flea bioassay, treated vials (Example 9); format: in vivo; settings: 24 h exposure, 95% CI in parentheses
Method: Flea Colonies. Adult X. cheopis fleas (1–3 wk old) were obtained from a colony founded more than eight years ago using adults received from Tom Schwan, Rocky Mountain Laboratories, Hamilton, Mont. The area from which these original adult fleas were obtained, and the resulting colony, have no known histories of pesticide exposure.
Tick and Flea Bioassays. Concentrations of the compounds were prepared by 2-fold serial dilutions of a 0.5% (wt:vol) solution of the extracts in acetone. […] A control treated with acetone only was run with each series. Tick and flea susceptibility was evaluated using a modified disposable pipette method. See, Barnard, D. R., et al., J. Econ. Entomol.
The inner surface of 2-dram friction cap vials were treated with the compound/acetone solution, or acetone only as a control, and left to air-dry overnight. Three to 4 holes were made in the plastic cap to allow for air exchange. Nymphal ticks and adult fleas were then placed directly into the vials using forceps. Vials containing ticks or fleas were placed in desiccators for 24 h at 21° C. and 90% RH. Morbidity and mortality was recorded at 1, 2, 4, 8, and 24 h after initial exposure.

[5] = system: ticks, fleas, and mosquitos; experiment: Bioassay of Example 2 on ticks, fleas and mosquitos (Examples 4 and 6); format: in vivo
Method: as §1
Nootkatol was tested using the bioassay presented in Example 2.
Two nootkatone samples were compared to nootkatone isolated from Alaska yellow cedar using the method presented in Example 1. The first sample was a natural extract of nootkatone taken from grapefruit oil purchased commercially. The second sample was a synthetically produced nootkatone purchased commercially.
Both samples were compared to the nootkatone originating from Alaska yellow cedar in terms of their biocidal activities. Using a bioassay method similar to that presented in Example 2, no differences were discernible among the nootkatone samples in terms of their biocidal effect on ticks, fleas and mosquitos.

Aedes aegypti = experiment: Mosquito susceptibility (Example 8); settings: in vivo
nymphal I. scapularis = experiment: Baseline dose-mortality, method of Maupin and Piesman 1994 (Example 7); format: in vivo; settings: nymphal ticks
Text: Baseline dose-mortalities were established for nymphal I. scapularis for nootkatone and valencene-11,12-epoxide using the method described in Maupin, G. O., and Piesman, J., J. Med. Entomol., 31:319–21 (1994).
A comparison of relative potency was made with published data for carbaryl and permethrin (Maupin and Piesman, 1994) and Alaska yellow cedar essential oil (Panella et al., J. Med. Entomol. 34:340–45 (1997) is presented in Table 6.

[6] = system: ticks, fleas, formicids and termites; experiment: Persistence of biocidal activity, vials treated with 2% solutions (Example 5); format: in vivo
Method: as §1
Persistence of biocidal activity was determined for nootkatone and valencene-11,12-epoxide by using the vials as treated with the 2% solutions of Example 2. […] At 11 weeks, the biocidal activity began to dissipate below the 100% mortality level.

Culex p. pipiens = experiment: Mosquito susceptibility, serial dilutions (Example 8); settings: in vivo

CC1=CCC(O)(C(C)C)CC1 (centres unmarked) [Compound 2, Terpinen-4-ol]
pesticidal activity in initial screening [1]: no pesticidal activity

COc1cc(C(C)C)ccc1C [Compound 3, Methyl carvacrol]
pesticidal activity in initial screening [1]: no pesticidal activity

CC(C)=CCc1ccc(O)c(=O)cc1C(C)C [Compound 11, Nootkatin]
I. scapularis adults (4 wk), number killed/number tested [2]: 0/5 | X. cheopis adults (5 wk), number killed/number tested [3]: 0/5 | LC50 (Ae. aegypti adults): 0.852 percent concentration, wt:vol | LC90 (Ae. aegypti adults): 7.869 percent concentration, wt:vol | I. scapularis nymphs (24 h), number killed/number tested [4]: 1/10 | I. scapularis nymphs (72 h), number killed/number tested [4]: 0/5 | mortality (Aedes aegypti adults): 20%

C=C(C)[C@@H]1CCC2=C[C@@H](O)C[C@@H](C)[C@]2(C)C1 [Compound 12, Nootkatol]
LC50 (I. scapularis nymphs): 0.023 (0.017–0.03) percent concentration, wt:vol | LC90 (I. scapularis nymphs): 0.059 (0.042–0.116) percent concentration, wt:vol | LC50 (I. scapularis nymphs; listed as compound 12): 0.023 percent concentration, wt:vol | LC50 (X. cheopis adults): 0.024 (0.018–0.034) percent concentration, wt:vol | LC90 (X. cheopis adults): 0.1 (0.065–0.196) percent concentration, wt:vol | LC50 (X. cheopis adults; listed as compound 12): 0.024 percent concentration, wt:vol | biocidal activity compared with nootkatene [5]: essentially equivalent to the activity of nootkatene | LC50 (Ae. aegypti adults): 0.004 (0.0032–0.0048) percent concentration, wt:vol | LC90 (Ae. aegypti adults): 0.01 (0.008–0.014) percent concentration, wt:vol | LC50 (Ae. aegypti adults; listed as compound 12): 0.004 percent concentration, wt:vol

C[C@@H]1CCC=C2CCC(C3(C)CO3)C[C@]21C (some centres unmarked) [Compound 13, valencene-11,12-epoxide]
I. scapularis adults (4 wk), number killed/number tested [2]: 5/5 | A. aegypti LD50 (Aedes aegypti): <4.5 × 10^−3 | more effective than essential oil of Alaska yellow cedar (nymphal I. scapularis): about 98% | potency relative to essential oil of Alaska yellow cedar (nymphal I. scapularis): approximately 50 times | X. cheopis adults (5 wk), number killed/number tested [3]: 5/5 | LC50 (Ae. aegypti adults; Aedes aegypti, 24 h, read-out: LC50): 2950 µg/mL (≈ 13.4 mM) | EC90 (Ae. aegypti adults; Aedes aegypti, 24 h, read-out: LC90 (the source's name)): 19.1 mg/mL (≈ 86.7 mM) | I. scapularis nymphs (24 h), number killed/number tested [4]: 10/10 | I. scapularis nymphs (72 h), number killed/number tested [4]: 5/5 | mortality ([6]; 24 hour exposure at each test through 10 weeks, each group of arthropods): 100% | time at which biocidal activity began to dissipate below the 100% mortality level ([6]; vials treated with 2% solutions): 11 weeks | C. pipiens LD50 (Culex p. pipiens): <4.5 × 10^−3 | mortality rate at the lowest tested dosage (Culex p. pipiens): 64%
